Measurements: US9751857B2, “Hepatitis B antiviral agents” (NOVIRA THERAPEUTICS, INC., priority 2011, dated 2017)

Tests used:
[1] = target: HBV C150Bo capsid protein (HBV CA protein) (Hepatitis B virus genotype D subtype adw, UniProt P03147, C107A/C48A/C61A/R150C); assay: HBV assembly assay (fluorescence quenching in vitro assembly); assay type: biochemical; settings: at 10 μM
[2] = system: HBV replication in HepG2-2.2.15 cells; assay: Dot-blot assay of HBV replication; assay type: cell-based; settings: Hepatitis B virus, 144 h
Procedure: Compounds active in the HBV assembly assay are tested for their activity and toxicity in cellular assay. In the first anti-viral assay, the ability of compounds to inhibit HBV replication in an HBV-producing hepatoma cell line using the dot-blot method is evaluated.
Briefly, confluent monolayers of HepG2-2.2.15 cells are incubated with complete medium containing various concentrations of a test compound. Three days later, the culture medium is replaced with fresh medium containing the appropriately diluted test compound. Six days following the initial administration of the test compound, the cell culture supernatant is collected, and cell lysis is performed. The samples are applied onto Nylos membranes and DNA is immobilized to the membrane by UV cross-linking. After pre-hybridization, the HBV probe is added and the hybridization is performed overnight. The membranes are exposed to the Kodak films; antiviral activity is calculated from the reduction in HBV DNA levels (EC50). The EC50 for antiviral activity is calculated from the dose response curves of active compounds.
In the first anti-viral assay, the ability of compounds to inhibit HBV replication in an HBV-producing hepatoma cell line using the dot-blot method was evaluated.
Confluent monolayers of HepG2-2.2.15 cells were incubated with complete medium containing various concentrations of a test compound. Three days later, the culture medium was replaced with fresh medium containing the appropriately diluted test compound. Six days following the initial administration of the test compound, the cell culture supernatant was collected, and cell lysis was performed. The samples were applied onto Nylos membranes and DNA was immobilized to the membrane by UV cross-linking. After pre-hybridization, the HBV probe was added and the hybridization was performed overnight. The membranes were exposed to the Kodak films; antiviral activity was calculated from the reduction in HBV DNA levels (EC50). The EC50 for antiviral activity was calculated from the dose response curves of active compounds. […]

HBV C150Bo capsid protein (HBV CA protein), sequence (P03147 1-150 C48A/C61A/C107A/R150C): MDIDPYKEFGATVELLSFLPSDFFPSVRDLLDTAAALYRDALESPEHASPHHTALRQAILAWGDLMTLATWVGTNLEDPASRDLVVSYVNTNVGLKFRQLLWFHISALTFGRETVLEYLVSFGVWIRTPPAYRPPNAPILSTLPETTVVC

SMILES	Activity in HBV assembly assay [1]	inhibition at 10 µM [2]
O=C(Nc1ccc(F)c(Cl)c1)c1cc(S(=O)(=O)N2CCC(O)(CO)CC2)c(F)cc1Cl [compound 1380]	+ (‘+’ indicates >50% activity at 10 μM)	> 50%
O=C(Nc1cc(F)c(F)c(F)c1)c1cc(S(=O)(=O)NC2COCC2O)c(F)cc1Cl (stereo not shown) [compound 1404]	+ (‘+’ indicates >50% activity at 10 μM)	> 50%
O=C(Nc1ccc(F)c(Cl)c1)c1cc(S(=O)(=O)N2CC(O)C(F)C2)c(F)cc1Cl (stereo not shown) [compound 1410]	+ (‘+’ indicates >50% activity at 10 μM)	> 50%
O=C(Nc1ccc(F)c(F)c1)c1cc(S(=O)(=O)N2CC(O)C(F)C2)c(F)cc1Cl (stereo not shown) [compound 1413]	+ (‘+’ indicates >50% activity at 10 μM)	> 50%
O=C(Nc1cc(F)c(F)c(F)c1)c1ccc(CO)c(S(=O)(=O)N2CCC(O)CC2)c1 [compound 1420]	+ (‘+’ indicates >50% activity at 10 μM)	> 50%
